According to patent US20230082311A1, “DRUG FOR CURATIVE THERAPY OF INTRACTABLE HEREDITARY RENAL ALPORT SYNDROME” (NATIONAL UNIVERSITY CORPORATION KUMAMOTO UNIVERSITY, priority 2019, published 2023):
*1 amine or outer side, *2 acyl side, *3 side chain or, on linkers, in order; H or OH if unused. Where a SMILES comes first, the peptide text is derived from it. [ ]: non-standard residue; d: D form. X1 = COCCN1CCN(C[C@H](C)[C@@H](C(=O)[*:2])N(C)[*:1])CC1; MeBmt = C/C=C/C[C@@H](C)[C@@H](O)[C@H](NC)C(=O)O; NMeL = CN[C@@H](CC(C)C)C(=O)O; NMeV = CN[C@H](C(=O)O)C(C)C; dNMeA = CN[C@H](C)C(=O)O; Abu = CC[C@H](N)C(=O)O

Assays:
[1] = system: α345 (COL4A5-G1244D) collagen trimer; experiment: Type IV collagen α345 trimer assay by Nano luciferase, COL4A5-G1244D stable line; assay type: cell-based, Human; details: for secretion level of collagen trimer as a function of concentration: COL4A5 (G1244D), concentration series up to 10 μM, FIG. 1-3; for collagen trimer secretion (luminescence of culture supernatant, ratio to DMSO-treated group): HEK293T line stably expressing α345 (COL4A5-G1244D), 24 hr treatment
Procedure: (§1) HEK293T cells (Human Embryonic Kidney 293) were obtained from the RIKEN Cell Bank, and thereafter addition of virus concentration solution for COL4A4-3FLAG (Puro), COL4A3-SmBiT (Hyg), COL4A5-LgBiT (BSD) (Omachi K. et al., Cell Chemical Biology 2018, 25, 634-643) in this order, exchange of drug resistance containing medium, passage and preservation of surviving cells were repeated whereby a cell line stably expressing α345 (IV) trimer was generated. COL4A5 variant G1244D was prepared using pLVSIN EF1α BSD COL4A5-LgBiT as a template and using Quikchange (registered trade mark) II Site-directed Mutagenesis Kit (STRATAGENE (registered trade mark)). The primers used were follows. PCR reactions (95° C. for 1 min, one cycle; 95° C. for 50 sec, 60° C. for 50 sec, 68° C. for 90 sec/1 kb, 18 cycles; 68° C. for […]) were performed with each Primer. The base sequence of DNA was confirmed by the cycle sequence method (Sigma-Aldrich JAPAN).
(§2) A cell line stably expressing split nano luciferase-fused α345 required for the NanoLuc α345 trimer assay was seeded on LumiNuc 96 well white plate (Thermo). After 24 hr, the cells were cultured in phenol red-free DMEM complete medium containing 2-phosphate ascorbic acid (200 μM), substrates were added to the culture supernatant and cells according to the standard method of NanoGlo live cell assay (Promega) reagent, and luminescence was confirmed with luminometer GloMax Navigator (Promega).
The cell line stably expressing α345 (COL4A5-G1244D) was detached and seeded on LumiNuc 96 well white plate (Thermo) at a density of 2×10^4 cells/well. 24 hr after seeding, the medium was exchanged with a phenol red-free DMEM complete medium containing 2-phosphate ascorbic acid (200 μM) and each concentration of cyclosporin A (CsA) (0.1, 0.5, 1, 2, 5, 10 μM), or each concentration of PSC-833 (0.5, 1, 2, 5, 10 μM), or each concentration of Alisporivir (0.1, 0.5, 5, 10 μM) and the cells were cultured. A substrate was added 24 hr later to the culture supernatant according to the standard method of NanoGlo live cell assay (Promega) reagent, and luminescence (index of trimer secretion) was measured by luminometer GloMax Navigator (Promega). The control solvent (CON) used was dimethyl sulfoxide (DMSO).

[2] = system: α3WT/α4WT/α5WT collagen trimer (COL4a5/WT); experiment: Type IV collagen α345 trimer assay by Nano luciferase, wild-type COL4A5 stable line; assay type: cell-based, Human; details: wild-type stable cell line, FIG. 5 upper
Procedure: as §1, with “The base sequence of DNA was confirmed by the cycle sequence method (Sigma-Aldrich JAPAN).” left out
as §2, with “(Promega). […]” for “(Promega).”

[3] = system: α3WT/α4WT/α5G1241V collagen trimer (COL4a5/G1241V); assay type: cell-based, Human
[4] = system: COL4A5 AS mutants (G227S, G594D, G624D, G869R, S916G, G1030S, G1107R, G1140V, G1220D, G1241C, G1241V, G1244D, P1517T, R1569Q) and Exon41-deleted variant; assay type: cell-based, Human; details: panel of 14 AS mutants, Exon41-deleted variant and wild type, FIG. 7
[5] = biological target: T1, PPIF (cyclophilin D) (Homo sapiens, UniProt P30405); experiment: Collagen trimer secretion promotion in G1244D HEK293T cells with cyclophilins knocked down with siRNA; assay type: cell-based; details: siRNA 15 nM against 11 cyclophilins, CsA 1 μM, Alisporivir 2 μM, FIG. 8
T1 construct: endogenous in cells; host or cells: HEK293T stably expressing split-NanoLuc alpha345 (COL4A5-G1244D), with or without siRNA knock-down
Excerpt: To elucidate the mechanism of collagen trimer secretion promotion by CsA and Alisporivir, cells in which cyclophilins to which CsA and Alisporivir can bind were knocked down with siRNA were produced, and the collagen trimer secretion promoting effect by CsA and Alisporivir in the cells was investigated comprehensively.
As the cells, G1244D mutation-introduced HEK293T cells—for which the effect of CsA and Alisporivir were confirmed in previous experiments—were used.
(§3) An cell line stably expressing split nano luciferase-fused α345 required for the NanoLuc α345 trimer assay was seeded on a 6 well plate (Corning) at 3×10^5 cells/well, and the siRNAs shown in Table 1 were introduced by lipofection at the time of subconfluence. The target genes are all cyclophilins, and the abbreviations in Table 1 indicate the following substances.
Lipofectamine RNAi Max was used for transfection of siRNA. The final siRNA concentration was adjusted to 15 nM, and transfection was performed according to the standard protocol. 24 hr after siRNA introduction, the cells were detached and reseeded on a LumiNuc 96 well white plate (Thermo) at 4×10^4 cells/well. […] Substrates were added 24 hr later to the culture supernatant and cells according to the standard method of NanoGlo live cell assay (Promega) reagent, and luminescence (index of trimer secretion) was measured by luminometer GloMax Navigator (Promega). […]

[6] = system: calcineurin; details: cited from earlier work
[7] = clinical trials (Zeuzem 2015; Buti 2015); cited from earlier work
[8] = biological target: T1, PPIF (cyclophilin D); experiment: Collagen trimer secreting ability of G1244D HEK293T cells after knock-down of cyclophilins with siRNA; assay type: cell-based; details: G1244D mutant-transfected HEK293T cells, FIG. 9
Procedure: as §3
Lipofectamine RNAi Max was used for transfection of siRNA. The final siRNA concentration was adjusted to 15 nM, and transfection was performed according to the standard protocol. 24 hr after siRNA introduction, the cells were detached and reseeded on a LumiNuc 96 well white plate (Thermo) at 4×10^4 cells/well. 24 hr thereafter, the medium was exchanged with a phenol red-free DMEM complete medium containing 2-phosphate ascorbic acid (200 μM) and Cyclosporin A (CsA) (1 μM), or Alisporivir (2 μM) and the cells were cultured. Substrates were added 24 hr later to the culture supernatant and cells according to the standard method of NanoGlo live cell assay (Promega) reagent, and luminescence (index of trimer secretion) was measured by luminometer GloMax Navigator (Promega). The control solvent (CON) used was DMSO. […]

T1 sequence (P30405 30-207): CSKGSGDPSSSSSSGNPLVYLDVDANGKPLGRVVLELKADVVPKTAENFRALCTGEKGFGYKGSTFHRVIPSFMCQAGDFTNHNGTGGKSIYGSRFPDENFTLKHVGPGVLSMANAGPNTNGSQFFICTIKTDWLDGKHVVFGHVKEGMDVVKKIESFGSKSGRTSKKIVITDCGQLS

With C/C=C/C[C@@H](C)[C@@H](O)[C@H]1C(=O)N[C@@H](CC)C(=O)N(C)[C@H](C)C(=O)N(CC)[C@@H](C(C)C)C(=O)N[C@@H](C(C)C)C(=O)N(C)[C@@H](CC(C)C)C(=O)N[C@@H](C)C(=O)N[C@H](C)C(=O)N(C)[C@@H](CC(C)C)C(=O)N(C)[C@@H](CC(C)C)C(=O)N(C)[C@@H](C(C)C)C(=O)N1C [Alisporivir] the “secretion level of collagen trimer as a function of concentration” value [1] was “increases depending on the concentration of Alisporivir”, the “action of promoting collagen trimer secretion compared with CsA” value ([1]; COL4A5-G1244D, concentrations of 5 μM and 10 μM, FIG. 4) was “stronger action of promoting collagen trimer secretion than CsA” and the “collagen trimer secretion (luminescence of culture supernatant, ratio to DMSO-treated group)” value [1] was “showed an action of promoting collagen trimer secretion”. The “secretion of trimers of COL4a5/WT-containing collagen” value [2] was “did not show an influence on COL4a5/WT”, the “extracellular secretion of collagen trimers, COL4a5/G1241V” value ([3]; G1241V stable cell line, FIG. 5 lower) was “promoted extracellular secretion of collagen trimers” and the “collagen trimer secretion in COL4A5 variants” value [4] was “exhibited a significant effect in G1030S, G1107R, G1220D, G1241C, G1241V, G1244D, and Exon41-deleted variants”. For the same molecule, the “effect of promoting the secretion of collagen trimers in cyclophilin knock-down cells” value [5] was “decreased only in the cells knocked down with PPIF (cyclophilin D)”, the calcineurin inhibition [6] was “does not inhibit calcineurin” and the “nephrotoxicity in clinical trials” value [7] was “no nephrotoxicity”.

In the case of C/C=C/C[C@@H](C)[C@@H](O)[C@H]1C(=O)N[C@@H](CC)C(=O)N(C)[C@H](C)C(=O)N(C)[C@@H]([C@@H](C)CN2CCN(CCOC)CC2)C(=O)N[C@@H](C(C)C)C(=O)N(C)[C@@H](CC(C)C)C(=O)N[C@@H](C)C(=O)N[C@H](C)C(=O)N(C)[C@@H](CC(C)C)C(=O)N(C)[C@@H](CC(C)C)C(=O)N(C)[C@@H](C(C)C)C(=O)N1C [NIM258] (cyclo(A[dA][NMeL][NMeL][NMeV][MeBmt][Abu][dNMeA][X1]V[NMeL])), the “extracellular secretion of collagen trimer compared with DMSO-administered group” value ([3]; 5 μM or 10 μM, G1241V cell line per FIG. 6) is given as “extracellular secretion of collagen trimers was promoted” and the calcineurin inhibition [6] is given as “does not inhibit calcineurin”.

For C/C=C/C[C@@H](C)C(=O)[C@H]1C(=O)N[C@@H](C(C)C)C(=O)N(C)CC(=O)N(C)[C@@H](CC(C)C)C(=O)N[C@@H](C(C)C)C(=O)N(C)[C@@H](CC(C)C)C(=O)N[C@@H](C)C(=O)N[C@H](C)C(=O)N(C)[C@@H](CC(C)C)C(=O)N(C)[C@@H](CC(C)C)C(=O)N(C)[C@@H](C(C)C)C(=O)N1C [PSC-833], the “secretion level of collagen trimer as a function of concentration” value [1] was “does not increase even when the amount of PSC-833 is increased to 10 μM”, the “intracellular expression level of collagen trimer” value ([1]; COL4A5-G1244D line, PSC-833 0.5-10 μM) was “did not affect” and the “collagen trimer secretion (luminescence of culture supernatant, ratio to DMSO-treated group)” value [1] was “did not affect collagen trimer secretion”. The calcineurin inhibition [6] was “does not inhibit calcineurin”.

In the case of “siPPIF: siRNA against human PPIF (cyclophilin D), sense GGCAGAUGUCGUCCCAAAG, antisense CUUUGGGACGACAUCUGCC (SEQ ID NO: 27/28) (listed as RNA, chemistry not given here)”, the “secretion level of collagen trimer, ratio to siGL2-treated group” value [8] was “promotion of collagen trimer secretion was confirmed”.
